# Test results: US8580825B2, “Oxadiazole inhibitors of leukotriene production” (Boehringer Ingelheim International GmbH, priority 2010, dated 2013)
# Tests used:
# [1] = target: T1, recombinant human FLAP protein (Homo sapiens, UniProt P20292); assay: FLAP binding assay (Scintillation Proximity Assay, displacement of [125I]L-691,831); settings: read-out: FLAP SPA IC50
# T1 construct: made in house; host or cells: Sf9 insect cells (100,000xg membrane fraction used)
# T1 sequence (P20292 1-161): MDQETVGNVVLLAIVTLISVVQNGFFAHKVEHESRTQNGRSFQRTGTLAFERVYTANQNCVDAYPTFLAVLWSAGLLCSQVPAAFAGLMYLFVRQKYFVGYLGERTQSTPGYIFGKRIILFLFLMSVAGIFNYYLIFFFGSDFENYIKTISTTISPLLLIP
# How it was run: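 Scintillation proximity displacement of [125I]L-691,831 (0.08 nM) from membranes of sf9 cells expressing recombinant human FLAP (5 μg/well) on WGA SPA beads, pH 7.5 Tris buffer. Plates shaken 2 h before counting. Non-specific binding defined with 10 μM unlabelled L-691,831.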
# [2] = test system: synthesis of LTB4 in human whole blood; assay: human whole blood LTB4 production inhibition assay; type: cell-based; settings: calcimycin stimulated, read-out: hWB LTB4 IC50
# How it was run: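 LTB4 in plasma was quantified by HTRF immunoassay. Before that, compound-treated heparinized whole blood (15 min, 37 °C) received 20 μM final calcimycin for a further 30 min at 37 °C, followed by centrifugation at 1500×g.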
Structure (SMILES),IC50 [1] [nM],IC50 [2] [nM]
"COCCn1cc(-c2nc([C@](C)(c3ccc(-c4cnc(N)cn4)nc3)C3CC3)no2)cn1 [Example 127, 5-[5-((S)-1-Cyclopropyl-1-{5-[1-(2-methoxy-ethyl)-1H-pyrazol-4-yl]-[1,2,4]oxadiazol-3-yl}-ethyl)-pyridin-2-yl]-pyrazin-2-ylamine]",220,410
"CC(C)[C@](C)(c1ccc(-c2cnc(N)nc2)nc1)c1noc(-c2cnn(CCS(C)(=O)=O)c2)n1 [Example 128, 5-[5-((R)-1-{5-[1-(2-Methanesulfonyl-ethyl)-1H-pyrazol-4-yl]-[1,2,4]oxadiazol-3-yl}-1,2-dimethyl-propyl)-pyridin-2-yl]-pyrimidin-2-ylamine]",10,270
"CC(C)[C@](C)(c1ccc(-c2cnc(N)nc2)nc1)c1noc(-c2cnn(CC#N)c2)n1 [Example 129, [4-(3-{(R)-1-[6-(2-Amino-pyrimidin-5-yl)-pyridin-3-yl]-1,2-dimethyl-propyl}-[1,2,4]oxadiazol-5-yl)-pyrazol-1-yl]-acetonitrile]",8.1,19
"CNc1cnc(-c2ccc(C(C)(c3noc(-c4cnn(CC(C)(C)O)c4)n3)C3CC3)cn2)cn1 (centres unmarked) [Example 130, 1-[4-(3-{1-Cyclopropyl-1-[6-(5-methylamino-pyrazin-2-yl)-pyridin-3-yl]-ethyl}-[1,2,4]oxadiazol-5-yl)-pyrazol-1-yl]-2-methyl-propan-2-ol]",15,94
"CC(C)[C@](C)(c1ccc(-c2ccc(N)nc2)nc1)c1noc(-c2cnn(C3COC3)c2)n1 [Example 131, 5-{(R)-1,2-Dimethyl-1-[5-(1-oxetan-3-yl-1H-pyrazol-4-yl)-[1,2,4]oxadiazol-3-yl]-propyl}-[2,3′]bipyridinyl-6′-ylamine]",5.6,39
"CC(C)[C@](C)(c1ccc(-c2ccc(N)nc2)nc1)c1noc(-c2cnn(CC(=O)N(C)C)c2)n1 [Example 132, 2-(4-{3-[(R)-1-(6′-Amino-[2,3′]bipyridinyl-5-yl)-1,2-dimethyl-propyl]-[1,2,4]oxadiazol-5-yl}-pyrazol-1-yl)-N,N-dimethyl-acetamide]",12,130
"COCCn1cc(-c2nc([C@@](C)(c3ccc(-c4ccc(N)nc4)nc3)C(C)C)no2)cn1 [Example 133, 5-((R)-1-{5-[1-(2-Methoxy-ethyl)-1H-pyrazol-4-yl]-[1,2,4]oxadiazol-3-yl}-1,2-dimethyl-propyl)-[2,3′]bipyridinyl-6′-ylamine]",7.5,30
"C[C@@](c1ccc(-c2cnc(N)nc2)nc1)(c1noc(-c2cnc(N3CCNCC3)cn2)n1)C1CC1 [Example 134, 5-(5-{(R)-1-Cyclopropyl-1-[5-(3,4,5,6-tetrahydro-2H-[1,2′]bipyrazinyl-5′-yl)-[1,2,4]oxadiazol-3-yl]-ethyl}-pyridin-2-yl)-pyrimidin-2-ylamine]",7.2,310
"CC(C)[C@](C)(c1ccc(-c2ccc(N)nc2)nc1)c1noc(-c2cnn(CC(C)(C)O)c2)n1 [Example 136, 1-(4-{3-[(R)-1-(6′-Amino-[2,3′]bipyridinyl-5-yl)-1,2-dimethyl-propyl]-[1,2,4]oxadiazol-5-yl}-pyrazol-1-yl)-2-methyl-propan-2-ol]",9.9,61
"CC(C)[C@](C)(c1ccc(-c2ccc(N)nc2)nc1)c1noc(-c2cnc(N3CCNCC3)cn2)n1 [Example 137, 5-{(R)-1,2-Dimethyl-1-[5-(3,4,5,6-tetrahydro-2H-[1,2′]bipyrazinyl-5′-yl)-[1,2,4]oxadiazol-3-yl]-propyl}-[2,3′]bipyridinyl-6′-ylamine]",11,590
"COCCn1cc(-c2nc([C@@](C)(c3ccc(-c4ccc(N)nc4)nc3)C3CC3)no2)cn1 [Example 138, 5-((R)-1-Cyclopropyl-1-{5-[1-(2-methoxy-ethyl)-1H-pyrazol-4-yl]-[1,2,4]oxadiazol-3-yl}-ethyl)-[2,3′]bipyridinyl-6′-ylamine]",22,100
"CC(C)(O)Cn1cc(-c2nc([C@@](C)(c3ccc(-c4ccc(N)nc4)nc3)C3CC3)no2)cn1 [Example 139, 1-(4-{3-[(R)-1-(6′-Amino-[2,3′]bipyridinyl-5-yl)-1-cyclopropyl-ethyl]-[1,2,4]oxadiazol-5-yl}-pyrazol-1-yl)-2-methyl-propan-2-ol]",33,68
"CN(C)C(=O)Cn1cc(-c2nc([C@@](C)(c3ccc(-c4ccc(N)nc4)nc3)C3CC3)no2)cn1 [Example 140, 2-(4-{3-[(R)-1-(6′-Amino-[2,3′]bipyridinyl-5-yl)-1-cyclopropyl-ethyl]-[1,2,4]oxadiazol-5-yl}-pyrazol-1-yl)-N,N-dimethyl-acetamide]",44,150
"CC(C)[C@](C)(c1ccc(-c2cnc(N)nc2)nc1)c1noc(-c2cnn(CC(=O)NC(C)(C)C)c2)n1 [Example 141, 2-[4-(3-{(R)-1-[6-(2-Amino-pyrimidin-5-yl)-pyridin-3-yl]-1,2-dimethyl-propyl}-1,2,4-oxadiazol-5-yl)-pyrazol-1-yl]-N-tert-butyl-acetamide]",8.3,68
"CC(C)NC(=O)Cn1cc(-c2nc([C@@](C)(c3ccc(-c4cnc(N)nc4)nc3)C(C)C)no2)cn1 [Example 142, 2-[4-(3-{(R)-1-[6-(2-Amino-pyrimidin-5-yl)-pyridin-3-yl]-1,2-dimethyl-propyl}-1,2,4-oxadiazol-5-yl)-pyrazol-1-yl]-N-isopropyl-acetamide]",16,85
"CC(C)[C@](C)(c1ccc(-c2cnc(N)nc2)nc1)c1noc(-c2cnn(CC(=O)N(C)C(C)(C)C)c2)n1 [Example 143, 2-[4-(3-{(R)-1-[6-(2-Amino-pyrimidin-5-yl)-pyridin-3-yl]-1,2-dimethyl-propyl}-1,2,4-oxadiazol-5-yl)-pyrazol-1-yl]-N-tert-butyl-N-methyl-acetamide]",9.2,51
"CC(C)[C@](C)(c1ccc(-c2cnc(N)nc2)nc1)c1noc(-c2cnn(CC(=O)N(C)C3CC3)c2)n1 [Example 144, 2-[4-(3-{(R)-1-[6-(2-Amino-pyrimidin-5-yl)-pyridin-3-yl]-1,2-dimethyl-propyl}-1,2,4-oxadiazol-5-yl)-pyrazol-1-yl]-N-cyclopropyl-N-methyl-acetamide]",13,68
"CC(C)CNC(=O)Cn1cc(-c2nc([C@@](C)(c3ccc(-c4cnc(N)nc4)nc3)C(C)C)no2)cn1 [Example 145, 2-[4-(3-{(R)-1-[6-(2-Amino-pyrimidin-5-yl)-pyridin-3-yl]-1,2-dimethyl-propyl}-1,2,4-oxadiazol-5-yl)-pyrazol-1-yl]-N-isobutyl-acetamide]",14,110
"CC(C)[C@](C)(c1ccc(-c2cnc(N)nc2)nc1)c1noc(-c2cnn(CC(=O)N(C)CC3CCCO3)c2)n1 (stereo partly drawn) [Example 146, 2-[4-(3-{(R)-1-[6-(2-Amino-pyrimidin-5-yl)-pyridin-3-yl]-1,2-dimethyl-propyl}-1,2,4-oxadiazol-5-yl)-pyrazol-1-yl]-N-methyl-N-(tetrahydro-furan-2-ylmethyl)-acetamide]",9.4,53
"CC(C)[C@](C)(c1ccc(-c2cnc(N)nc2)nc1)c1noc(-c2cnn(CC(=O)NC3CC3)c2)n1 [Example 147, 2-[4-(3-{(R)-1-[6-(2-Amino-pyrimidin-5-yl)-pyridin-3-yl]-1,2-dimethyl-propyl}-1,2,4-oxadiazol-5-yl)-pyrazol-1-yl]-N-cyclopropyl-acetamide]",8.6,170
"CC(C)[C@](C)(c1ccc(-c2cnc(N)nc2)nc1)c1noc(-c2cnn(CC(=O)NCC3CCCO3)c2)n1 (stereo partly drawn) [Example 148, 2-[4-(3-{(R)-1-[6-(2-Amino-pyrimidin-5-yl)-pyridin-3-yl]-1,2-dimethyl-propyl}-1,2,4-oxadiazol-5-yl)-pyrazol-1-yl]-N-(tetrahydro-furan-2-ylmethyl)-acetamide]",22,290
"CCNC(=O)Cn1cc(-c2nc([C@@](C)(c3ccc(-c4cnc(N)nc4)nc3)C(C)C)no2)cn1 [Example 149, 2-[4-(3-{(R)-1-[6-(2-Amino-pyrimidin-5-yl)-pyridin-3-yl]-1,2-dimethyl-propyl}-1,2,4-oxadiazol-5-yl)-pyrazol-1-yl]-N-ethyl-acetamide]",15,140
"COC1CCN(C(=O)Cn2cc(-c3nc([C@@](C)(c4ccc(-c5cnc(N)nc5)nc4)C(C)C)no3)cn2)C1 (stereo partly drawn) [Example 150, 2-[4-(3-{(R)-1-[6-(2-Amino-pyrimidin-5-yl)-pyridin-3-yl]-1,2-dimethyl-propyl}-1,2,4-oxadiazol-5-yl)-pyrazol-1-yl]-1-(3-methoxy-pyrrolidin-1-yl)-ethanone]",42,180
"CC(C)[C@](C)(c1ccc(-c2cnc(N)nc2)nc1)c1noc(-c2cnn(CC(=O)N3CCOCC3)c2)n1 [Example 151, 2-[4-(3-{(R)-1-[6-(2-Amino-pyrimidin-5-yl)-pyridin-3-yl]-1,2-dimethyl-propyl}-1,2,4-oxadiazol-5-yl)-pyrazol-1-yl]-1-morpholin-4-yl-ethanone]",32,190
"COCCNC(=O)Cn1cc(-c2nc([C@@](C)(c3ccc(-c4cnc(N)nc4)nc3)C(C)C)no2)cn1 [Example 152, 2-[4-(3-{(R)-1-[6-(2-Amino-pyrimidin-5-yl)-pyridin-3-yl]-1,2-dimethyl-propyl}-1,2,4-oxadiazol-5-yl)-pyrazol-1-yl]-N-(2-methoxy-ethyl)-acetamide]",24,190
